The structures appear in SMILES notation.

This test is described as follows: Inhibition of Bcr-Abl in mouse BA/F3 cells.
In turn, `FC(F)(F)Oc1ccc(CNc2cc(NCCN3CCOCC3)ncn2)cc1` [N4-(2-morpholinoethyl)-N6-(4-(trifluoromethoxy)benzyl)pyrimidine-4,6-diamine] displayed an EC50 above 10000 nM.
The value for `FC(F)(F)c1ccc(Nc2cc(NCCN3CCOCC3)ncn2)cc1` [N4-(2-morpholinoethyl)-N6-(4-(trifluoromethyl)phenyl)pyrimidine-4,6-diamine] was 920 nM.
As for `FC(F)(F)Oc1ccc(Nc2ncnc3nn(Cc4cccnc4)cc23)cc1` [2-(pyridin-3-ylmethyl)-N-(4-(trifluoromethoxy)phenyl)-2H-pyrazolo[3,4-d]pyrimidin-4-amine], the figure is 1700 nM; as for `FC(F)(F)Oc1ccc(Nc2ncnc3c2ccn3CCN2CCOCC2)cc1` [7-(2-morpholinoethyl)-N-(4-(trifluoromethoxy)phenyl)-7H-pyrrolo[2,3-d]pyrimidin-4-amine], 380 nM; as for `FC(F)(F)Oc1ccc(Nc2cc(-c3cn[nH]c3)ncn2)cc1` [6-(1H-pyrazol-4-yl)-N-(4-(trifluoromethoxy)phenyl)pyrimidin-4-amine], 90 nM.
The value for `OCCn1ncc2c(Nc3ccc(OC(F)(F)F)cc3)ncnc21` [2-(4-(4-(Trifluoromethoxy)phenylamino)-1H-pyrazolo-[3,4-d]pyrimidin-1-yl)ethanol] was 250 nM; that for `O=C(c1cccc(-c2cc(Nc3ccc(OC(F)(F)F)cc3)ncn2)c1)N1CCOCC1` [morpholino(3-(6-(4-(trifluoromethoxy)phenylamino)pyrimidin-4-yl)phenyl)methanone] was 240 nM; that for `Nc1cccc(-c2cc(Nc3ccc(OC(F)(F)F)cc3)ncn2)c1` [6-(3-aminophenyl)-N-(4-(trifluoromethoxy)phenyl)pyrimidin-4-amine] was 330 nM.
Compound `FC(F)(F)Oc1ccc(Nc2cc(-c3ccnc4[nH]ccc34)ncn2)cc1` [6-(1H-pyrrolo[2,3-b]pyridin-4-yl)-N-(4-(trifluoromethoxy)phenyl)pyrimidin-4-amine] returned an EC50 of 170 nM.
Consider `FC(F)(F)Oc1ccc(Nc2cc(-c3ccc4[nH]ccc4c3)ncn2)cc1` [6-(1H-indol-5-yl)-N-(4-(trifluoromethoxy)phenyl)pyrimidin-4-amine], for which the EC50 was 290 nM. This EC50 lies about 1.7-fold higher than the previous one.
As for `FC(F)(F)Oc1ccc(Nc2ccc(NCCN3CCOCC3)nn2)cc1` [N3-(2-morpholinoethyl)-N6-(4-(trifluoromethoxy)phenyl)pyridazine-3,6-diamine], the figure is above 10000 nM.
In turn, `FC(F)(F)Oc1ccc(Nc2ncnc3c2cnn3CC2CCOC2)cc1` (stereo not drawn) [1-((tetrahydrofuran-3-yl)methyl)-N-(4-(trifluoromethoxy)phenyl)-1H-pyrazolo[3,4-d]pyrimidin-4-amine] came in with an EC50 of 690 nM.
The compound `FC(F)(F)Oc1ccc(Nc2cc(N3CCOCC3)ncn2)cc1` [6-morpholino-N-(4-(trifluoromethoxy)phenyl)pyrimidin-4-amine] yielded an EC50 of 1800 nM.
The value for `FC(F)(F)Oc1ccc(Nc2cc(NCCN3CCOCC3)ncn2)cc1` [N4-(2-morpholinoethyl)-N6-(4-(trifluoromethoxy)phenyl)pyrimidine-4,6-diamine] was 720 nM; that for `O=C(O)c1cc2c(Nc3ccc(OC(F)(F)F)cc3)ncnc2s1` [4-(4-(trifluoromethoxy)phenylamino)thieno[2,3-d]pyrimidine-6-carboxylic acid] was above 10000 nM; that for `FC(F)(F)Oc1ccc(Nc2cncc(NCCN3CCOCC3)n2)cc1` [N2-(2-morpholinoethyl)-N6-(4-(trifluoromethoxy)phenyl)pyrazine-2,6-diamine] was above 10000 nM.
As for `FC(F)(F)Oc1ccc(Oc2cc(NCCN3CCOCC3)ncn2)cc1` [N-(2-morpholinoethyl)-6-(4-(trifluoromethoxy)phenoxy)pyrimidin-4-amine], the figure is above 10000 nM; as for `NS(=O)(=O)c1cccc(-c2cc(Nc3ccc(OC(F)(F)F)cc3)ncn2)c1` [3-(6-(4-(trifluoromethoxy)phenylamino)pyrimidin-4-yl)benzenesulfonamide], 580 nM; as for `FC(F)(F)Oc1ccc(Nc2ncnc3nn(C4CCCCC4)cc23)cc1` [2-cyclohexyl-N-(4-(trifluoromethoxy)phenyl)-2H-pyrazolo[3,4-d]pyrimidin-4-amine], 2200 nM.
The value for `O=C(c1cc2c(Nc3ccc(OC(F)(F)F)cc3)ncnc2s1)N1CCC(O)CC1` [(4-hydroxypiperidin-1-yl)(4-(4-(trifluoromethoxy)phenylamino)thieno[2,3-d]pyrimidin-6-yl)methanone] was 1960 nM; that for `NC(=O)c1ccccc1-c1cc(Nc2ccc(OC(F)(F)F)cc2)ncn1` [2-(6-(4-(trifluoromethoxy)phenylamino)pyrimidin-4-yl)benzamide] was above 10000 nM.
`NC(=O)c1cccc(Nc2cc(Nc3ccc(OC(F)(F)F)cc3)ncn2)c1` [3-(6-(4-(trifluoromethoxy)phenylamino)pyrimidin-4-ylamino)benzamide] registered an EC50 of 2920 nM.
Compound `NC(=O)c1cccc(Oc2cc(Nc3ccc(OC(F)(F)F)cc3)ncn2)c1` [3-(6-(4-(trifluoromethoxy)phenylamino)pyrimidin-4-yloxy)benzamide] yielded an EC50 of 5000 nM.
Turning to `FC(F)(F)Oc1ccc(-c2cc(NCCN3CCOCC3)ncn2)cc1` [N-(2-morpholinoethyl)-6-(4-(trifluoromethoxy)phenyl)pyrimidin-4-amine], the EC50 is above 10000 nM.
The value for `FC(F)(F)Oc1ccc(Nc2cc(-c3ccncc3)ncn2)cc1` [6-(pyridin-4-yl)-N-(4-(trifluoromethoxy)phenyl)pyrimidin-4-amine] was 470 nM; that for `FC(F)(F)Oc1ccc(Nc2ncnc3c2cnn3Cc2cccnc2)cc1` [1-(pyridin-3-ylmethyl)-N-(4-(trifluoromethoxy)phenyl)-1H-pyrazolo[3,4-d]pyrimidin-4-amine] was 7150 nM; that for `O=C(NCCN1CCOCC1)c1cccc(-c2cc(Nc3ccc(OC(F)(F)F)cc3)ncn2)c1` [N-(2-morpholinoethyl)-3-(6-(4-(trifluoromethoxy)phenylamino)pyrimidin-4-yl)benzamide] was 420 nM.
The value for `Cn1ccc2c(Nc3ccc(OC(F)(F)F)cc3)ncnc21` [7-methyl-N-(4-(trifluoromethoxy)phenyl)-7H-pyrrolo[2,3-d]pyrimidin-4-amine] was 6890 nM.
For `FC(F)(F)Oc1ccc(Nc2ncnc3c2cnn3C2CCCCC2)cc1` [1-cyclohexyl-N-(4-(trifluoromethoxy)phenyl)-1H-pyrazolo[3,4-d]pyrimidin-4-amine], the response was half-maximal at 400 nM (EC50).
The value for `Cc1c(NCCN2CCOCC2)ncnc1Nc1ccc(OC(F)(F)F)cc1` [5-methyl-N4-(2-morpholinoethyl)-N6-(4-(trifluoromethoxy)phenyl)pyrimidine-4,6-diamine] was 970 nM; that for `CNC(=O)c1cccc(-c2cc(Nc3ccc(OC(F)(F)F)cc3)ncn2)c1` [N-methyl-3-(6-(4-(trifluoromethoxy)phenylamino)pyrimidin-4-yl)benzamide] was 340 nM.
The value for `CCCn1ncc2c(Nc3ccc(OC(F)(F)F)cc3)ncnc21` [1-propyl-N-(4-(trifluoromethoxy)phenyl)-1H-pyrazolo[3,4-d]pyrimidin-4-amine] was 270 nM.
As for `CN(c1ccc(OC(F)(F)F)cc1)c1cc(NCCN2CCOCC2)ncn1` [N4-methyl-N6-(2-morpholinoethyl)-N4-(4-(trifluoromethoxy)phenyl)pyrimidine-4,6-diamine], the figure is above 10000 nM.

Values taken from BindingDB's records for doi:10.1021/jm100555f (Harvard Medical School, 2010).
